Earlier results as cited in patent publication US20040258778A1, “Lactation cessation and breast engorgement compositions and method of use” (priority 2003, published 2004).

System: lactating women

In the case of `CC(C)C[C@H]1C(=O)N2CCC[C@H]2[C@]2(O)O[C@](NC(=O)[C@@H]3C=C4c5cccc6[nH]c(Br)c(c56)C[C@H]4N(C)C3)(C(C)C)C(=O)N12` [bromocriptine], the “rebound engorgement, share of the time” value (after a two-week course of treatment ends, according to the official labeling) is listed as “up to 40%” and the “very serious side effects reported” value (use to suppress lactation (Iffy, 1998)) is listed as “strokes, seizures (convulsions), intracranial bleeding, cerebral edema, and heart attacks”.
